Assay results published in the supplement of paper PMC10307832.

Assays:
Experiment in all cases: relative viability (nuclei count vs DMSO), 5 days (fraction); higher = more cells survive
Etoposide + Olaparib = compound: COc1cc([C@@H]2c3cc4c(cc3[C@@H](O[C@@H]3O[C@@H]5CO[C@@H](C)O[C@H]5[C@H](O)[C@H]3O)[C@H]3COC(=O)[C@H]23)OCO4)cc(OC)c1O [Etoposide] + O=C(c1cc(Cc2n[nH]c(=O)c3ccccc23)ccc1F)N1CCN(C(=O)C2CC2)CC1 [Olaparib] (partner 8 µM)
Procedure, shortened: (§1)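 Relative viability equals treated-well nuclei counts divided by vehicle-well nuclei counts. Counts came from 4× images of lung cancer cell lines grown in 1536-well plates for 5 days after pin-tool dosing on the day after seeding. Dosing used one drug alone or a fixed anchor-drug dose plus five library-drug doses (not always all listed) in √10 steps, and values are medians of duplicate plates.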

Etoposide + Lapatinib = compound: COc1cc([C@@H]2c3cc4c(cc3[C@@H](O[C@@H]3O[C@@H]5CO[C@@H](C)O[C@H]5[C@H](O)[C@H]3O)[C@H]3COC(=O)[C@H]23)OCO4)cc(OC)c1O [Etoposide] + CS(=O)(=O)CCNCc1ccc(-c2ccc3ncnc(Nc4ccc(OCc5cccc(F)c5)c(Cl)c4)c3c2)o1 [Lapatinib] (partner 2 µM)
Procedure, shortened: as §1

Bleomycin + Pictilisib = compound: CC1=C(N=C(N=C1N)[C@H](CC(=O)N)NC[C@@H](C(=O)N)N)C(=O)N[C@@H]([C@H](C2=CN=CN2)OC3C(C(C(C(O3)CO)O)O)OC4C(C(C(C(O4)CO)O)OC(=O)N)O)C(=O)N[C@H](C)[C@H]([C@H](C)C(=O)N[C@@H]([C@@H](C)O)C(=O)NCCC5=NC(=CS5)C6=NC(=CS6)C(=O)NCCC[S+](C)C)O [Bleomycin] + CS(=O)(=O)N1CCN(Cc2cc3nc(-c4cccc5[nH]ncc45)nc(N4CCOCC4)c3s2)CC1 [Pictilisib] (partner 1 µM); details: main component drawn
Procedure, shortened: as §1

Bleomycin + Trametinib = compound: CC1=C(N=C(N=C1N)[C@H](CC(=O)N)NC[C@@H](C(=O)N)N)C(=O)N[C@@H]([C@H](C2=CN=CN2)OC3C(C(C(C(O3)CO)O)O)OC4C(C(C(C(O4)CO)O)OC(=O)N)O)C(=O)N[C@H](C)[C@H]([C@H](C)C(=O)N[C@@H]([C@@H](C)O)C(=O)NCCC5=NC(=CS5)C6=NC(=CS6)C(=O)NCCC[S+](C)C)O [Bleomycin] + CC(=O)Nc1cccc(-n2c(=O)n(C3CC3)c(=O)c3c(Nc4ccc(I)cc4F)n(C)c(=O)c(C)c32)c1 [Trametinib] (partner 0.02 µM); details: main component drawn
Procedure, shortened: as §1

## UMC-11
Etoposide + Olaparib; first compound 0.01 µM
  relative viability: 0.326
Etoposide + Olaparib; first compound 0.03162 µM
  relative viability: 0.331
Etoposide + Olaparib; first compound 0.1 µM
  relative viability: 0.311
Etoposide + Olaparib; first compound 0.3162 µM
  relative viability: 0.27
Etoposide + Olaparib; first compound 1 µM
  relative viability: 0.28
Etoposide + Lapatinib; first compound 0.01 µM
  relative viability: 0.973
Etoposide + Lapatinib; first compound 0.03162 µM
  relative viability: 1.05
Etoposide + Lapatinib; first compound 0.1 µM
  relative viability: 0.407
Etoposide + Lapatinib; first compound 0.3162 µM
  relative viability: 0.46
Etoposide + Lapatinib; first compound 1 µM
  relative viability: 0.239
Bleomycin + Pictilisib; first compound 0.01 µM
  relative viability: 0.842
Bleomycin + Pictilisib; first compound 0.03162 µM
  relative viability: 0.661
Bleomycin + Pictilisib; first compound 0.1 µM
  relative viability: 0.827
Bleomycin + Pictilisib; first compound 0.3162 µM
  relative viability: 0.66
Bleomycin + Pictilisib; first compound 1 µM
  relative viability: 0.577
Bleomycin + Trametinib; first compound 0.01 µM
  relative viability: 0.653
Bleomycin + Trametinib; first compound 0.03162 µM
  relative viability: 0.652
Bleomycin + Trametinib; first compound 0.1 µM
  relative viability: 0.774
Bleomycin + Trametinib; first compound 0.3162 µM
  relative viability: 0.632
Bleomycin + Trametinib; first compound 1 µM
  relative viability: 0.345
